Tested on: not listed separately
Assay: Ionization constant for the compound (pKa)
Assay type: physicochemical

pKa	SMILES
8.9	CCCC/N=C/N(C)c1ccccc1
10.8	N=C(N)Nc1ccccc1 [PHENYLGUANIDINE]

Organism: Homo sapiens
Assay: Selectivity ratio, the ratio of ki for human D2 receptor to Ki for human D1 receptor

Ratio	SMILES
5	CSC1=NCCc2cc(Cl)c(O)cc2N1
3	COc1ccc(/C=C/C2=NCCc3cc(Cl)c(O)cc3N2)cc1
3	COc1ccc(C2CC2C2=NCCc3cc(Cl)c(O)cc3N2)cc1 (centres undefined)
55	CC1=NCCc2cc(Cl)c(O)cc2N1c1ccc(C)cc1
17	CC(C)CC1=NCCc2cc(Cl)c(O)cc2N1
32	CC1=NCCc2cc(Cl)c(O)cc2N1c1ccsc1
42	Oc1cc2c(cc1Cl)CCN=C(c1ccccc1)N2
7	Oc1cc2c(cc1Cl)CCN=C(C1CCCCC1)N2
23	CN(C)c1ccc(/C=C/C2=NCCc3cc(Cl)c(O)cc3N2c2ccccc2)cc1
13	CNC1=NCCc2cc(Cl)c(O)cc2N1
3	CC1=NCCc2cc(Cl)c(O)cc2N1Cc1ccccc1
31	CC1=NCCc2cc(Cl)c(O)cc2N1c1ccccc1C
2	Oc1cc2c(cc1Cl)CCN=C(SCc1ccccc1)N2
1	Oc1cc2c(cc1Cl)CCN=C(NCCc1ccccc1)N2
12	Oc1cc2c(cc1Cl)CCN=C(NC1CCCC1)N2
4	COc1ccc2cc(C3=NCCc4cc(Cl)c(O)cc4N3)ccc2c1
6	Oc1cc2c(cc1Cl)CCN=C(NC1CC1)N2
1	NC1=NCCc2cc(Cl)c(O)cc2N1
8	CN(C)c1ccc(/C=C/C2=NCCc3cc(Cl)c(O)cc3N2C2CCCCC2)cc1
36	CC1=NCCc2cc(Cl)c(O)cc2N1c1ccccc1
12	Oc1cc2c(cc1Cl)CCN=C(NC1CCCCC1)N2
1	Oc1cc2c(cc1Cl)CCN=C(C1CC1)N2

Reference: ChEMBL document CHEMBL1155336, “Design and discovery of 1,3-benzodiazepines as novel dopamine antagonists” (Bioorg Med Chem Lett, 2009)
